Results on two molecules are retold here after patent US7718804B2, “Quaternary nitrogen heterocyclic compounds for detecting aqueous monosaccharides in physiological fluids” (University of Maryland Biotechnology Institute, priority 2003, dated 2010).

Series [1] is described as follows: pKa from normalized fluorescence intensity versus pH, with and without 100 mM sugar. It counts as physicochemical. The text has this: A normalized plot of intensity at 427 nm as a function of pH is shown in FIG. 6, wherein I is the emission intensity at the specified pH and Io is the initial emission intensity at pH 3.0. Though not to be bound by theory, it is likely that the change in fluorescence intensity relative to pH value is attributed to the change in hybridization of the boron atom with increasing pH. At low pH values, the boronic acid group is an electron-deficient Lewis acid that is sp^2-hybridized and thus is trigonal planar. As the pH increases, the anionic form of the boronic acid begins to form, which corresponds to a more electron rich sp^3-hybridized boron atom and an […] shape. The change in the geometry of the boron atom induces the fluorescence spectral changes of the molecular sensing moieties.
Based on previously reported pKa values for boronic acid compounds, these pKa values are the lowest reported for a phenyl boronic acid derivative. The quaternary nitrogen of the quinolinium moiety not only reduces the pKa of the compound, but also stabilizes the anionic boronate diester complex (represented by D in FIG. 1), which may explain the affinity of sugar for these novel compounds. Importantly, the large decrease in the pKa of the boronic acid-sugar complex relative to the uncomplexed boronic acid, allows for the quantitative detection of monosaccharides at or below physiological pH because substantial optical changes are observed.
A normalized plot of intensity at 450 nm as a function of pH is shown in FIG. 14, wherein normalized intensity is the emission intensity at the specified pH, I, relative to the initial emission intensity at pH 3.0, Io. As discussed with reference to o-BMQBA, the change in the geometry of the boron atom may explain the fluorescence spectral changes of the molecular sensing moieties.
Comparing the pKa values of previously reported boronic acid compounds relative to the novel BMOQBA isomers, these pKa values are relatively low. As discussed with reference to o-BMQBA, the lower pKa values can be attributed to the increased Lewis acidity of the boronate diester complex (represented by D in FIG. 1). Importantly, the large decrease in the pKa of the boronic acid-sugar complex relative to the uncomplexed boronic acid, allows for the quantitative detection of monosaccharides at or below physiological pH because substantial optical changes are observed.

The nature of series [2]: Dissociation constant from fluorescence titration with glucose. It counts as binding. As to conditions: pH 7.5 phosphate buffer. The text has this:
(§1) Stability (KS (mM^−1) and dissociation (KD) constants were obtained by fitting the titration curves with sugar to the relation:
(§2) [formula] where Imin and Imax are initial (no sugar) and final (plateau) fluorescence intensities of the titration curves and KD=(1/KS).

The nature of series [3]: Dissociation constant from fluorescence titration with fructose. It counts as binding. As to conditions: pH 7.5 phosphate buffer.
Text: as §1, §2

Series [4] can be described thus: Fluorescence intensity response to glucose in solution. As to conditions: for decrease in fluorescence intensity: 0.60 mM glucose, pH 6 to 7 range, buffered solution. As to the method:
All steady state fluorescence measurements were performed in a 4×1×1 cm fluorometric plastic cuvette, using a Varian Cary Eclipse fluorometer, and all absorption measurements were performed using a Varian UV/VIS 50 spectrophotometer. […]
The emission spectra of o-BMOQBA in the presence of varying concentrations of glucose and fructose are shown in FIG. 12A and FIG. 12B, respectively. It can be seen that the fluorescence intensity of o-BMOQBA in pH 7.5 phosphate buffer is inversely proportional to the glucose and fructose concentrations. […] A plot of the intensity ratio, I′/I, at λ=450 nm, where I′ and I represent the fluorescence intensities in the absence and presence of sugar, respectively, is shown in FIG. 12C. […] Referring to FIG. 12C, there is a 2.8-fold change in intensity by the addition of 60 mM sugar.
The intensity ratio at λ=450 nm for o-BMOQBA in buffered media (pH 5-8) at various glucose concentrations is shown in FIG. 16A, wherein I′ corresponds to the intensity in the absence of glucose and I corresponds to the intensity at the specified glucose concentration. In addition, the intensity ratio for o-BMOQBA in buffered media (pH 5-8) at low glucose concentrations, typical of those found in tears, is shown in FIG. 16B. Correspondingly, the intensity ratio for o-BMOQBA in buffered media (pH 5-8) at various fructose concentrations is shown in FIGS. 17A and 17B.
Each BAF was tested to determine the usefulness of these BAFs with regard to tear glucose sensing in a contact lens. Towards that end, both solution-based and doped contact lens-based measurements, the methods of which are described above, were performed and subsequently compared.

Setting [5] is: buffer with 100 mM fructose, 100 mM fructose, read-out: pKa (buffer + fructose).
The mark [6] stands for this setting: buffer with 100 mM glucose, 100 mM glucose, read-out: pKa (buffer + glucose).
[7] abbreviates: buffer without sugar, absence of sugar, read-out: pKa (buffer).

Where two headings read alike, the source gives them in different places.

On to `Cc1ccc2c(ccc[n+]2Cc2ccccc2B(O)O)c1.[Br-]` [o-BMQBA, N-(2-boronobenzyl)-6-methylquinolinium bromide], for which the figures for the pKa in series [1] (setting [5]), in series [1] (setting [6]) and in series [1] (setting [7]) were 5.08, 6.18 and 6.92, respectively. Moreover, the Kd in series [2] was 100 mM; in series [3], 4.7 mM. Also, the “decrease in fluorescence intensity” value in series [4] is on record as approximately 10%.
Turning to `COc1ccc2c(ccc[n+]2Cc2ccccc2B(O)O)c1.[Br-]` [o-BMOQBA, N-(2-boronobenzyl)-6-methoxyquinolinium bromide], the pKa came to 4.8 in series [1] (setting [5]), 6.62 in series [1] (setting [6]) and 7.9 in series [1] (setting [7]). Also, the Kd was 49.5 mM in series [2] and 0.65 mM in series [3]. In addition, in series [4], the “decrease in fluorescence intensity” value was 5-10%. Also, the “change in intensity (I′/I at 450 nm)” value in series [4] (addition of 60 mM sugar, pH 7.5 phosphate buffer (FIG. 12C)) came out at 2.8 fold.

One may read the pKa as the negative logarithm of the acid dissociation constant. For orientation: Kd means the equilibrium constant for the complex coming apart. Lower therefore signals a tighter complex.
